The values that follow come from ChEMBL document CHEMBL1201862, “PubChem BioAssay data set” (2004).

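Assay format: 96-well plates, 48-hour exposure. GI50 = concentration required for 50% inhibition of growth.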 Activity calls are given as the source filed them. Cut-off read from the data, not from the text of the source: active = GI50 up to about 1.1 µM and inactive = higher.

Test systems include UO-31; HCT-15; A549; OVCAR-4; A498; MDA-MB-231; 786-0; COLO 205; OVCAR-8; SK-MEL-28; SF-295; Hs-578T; TK-10; KM12; EKVX; IGROV-1; SR; K562; RPMI-8226; NCI-H522.
Common to all, as to assay: inhibition of tumour cell growth, NCI panel, 48 h

As for `Cn1c(=S)c2nc(SCCCc3ccccc3)[nH]c2n(C)c1=O`, the GI50 was 14.4 µM (inactive) with UO-31; 29.8 µM with HCT-15; 13.7 µM (inactive) with A549; 13 µM (inactive) in the test on OVCAR-4; 18.4 µM (inactive) in the test on A498; 42.5 µM (inactive) in the test on MDA-MB-231. The GI50 in the test on 786-0 was 25.1 µM (inactive); with COLO 205, 12.6 µM (inactive); in the test on OVCAR-8, 28.2 µM (inactive); in the test on SK-MEL-28, 46.6 µM (inactive); with SF-295, 11.4 µM (inactive); in the test with Hs-578T, > 100 µM (inactive). Besides, the GI50 with TK-10 is 17.4 µM (inactive); with KM12, 19.5 µM (inactive); in the test with EKVX, 13.7 µM (inactive); in the test with IGROV-1, 35.6 µM (inactive); in the test with SR, 4.85 µM (inactive); with K562, 19.7 µM (inactive). Moreover, the values for the GI50 in the test on RPMI-8226 and in the test on NCI-H522 were 15.1 µM (inactive) and 4.33 µM (inactive), respectively.

In the case of `O=C1Nc2ccccc2/C1=N/Nc1ccccc1Cl`, the GI50 was 18.7 µM (inactive) in the test on UO-31; > 100 µM in the test on HCT-15; 45.7 µM (inactive) in the test with A549; 3.57 µM (inactive) with OVCAR-4; 18.7 µM (inactive) in the test with A498; 10.3 µM (inactive) in the test on MDA-MB-231. Moreover, the GI50 in the test on 786-0 is 10.6 µM (inactive); in the test on COLO 205 it was 24.9 µM (inactive); in the test on OVCAR-8, 20.6 µM (inactive); in the test with SK-MEL-28, > 100 µM (inactive); in the test on SF-295 it was 32.1 µM (inactive); in the test on Hs-578T, 22.3 µM (inactive). For the same compound, the GI50 in the test on TK-10 is 5.41 µM (inactive); in the test on KM12, 63.1 µM (inactive); with EKVX, 14.5 µM (inactive); in the test with IGROV-1 it was 1.78 µM (inactive); with SR, 7.62 µM (inactive); in the test on K562 it was 43.5 µM (inactive). The GI50 with RPMI-8226 is 64.9 µM (inactive); in the test with NCI-H522, 37.8 µM (inactive).

As for `Cc1cc2nc(C=C(C(F)(F)F)C(F)(F)F)sc2cc1C`, the GI50 in the test on UO-31 is 2.53 µM (inactive); with HCT-15, 1.71 µM; in the test on A549 it was 4.02 µM (inactive); in the test on OVCAR-4, 2.99 µM (inactive); in the test with A498, 4.2 µM (inactive); in the test with MDA-MB-231, 2.82 µM (inactive). For the same compound, the GI50 with 786-0 is 0.316 µM (active); in the test on COLO 205, 1.4 µM (inactive); in the test on OVCAR-8 it was 0.908 µM (active); in the test with SK-MEL-28 it was 3.01 µM (inactive); in the test on SF-295 it was 3.15 µM (inactive); in the test with Hs-578T, 1.87 µM (inactive). Also, the GI50 is 2.34 µM (inactive) with TK-10; 1.7 µM (inactive) with KM12; 2.15 µM (inactive) with EKVX; 2.21 µM (inactive) in the test on IGROV-1; 0.0923 µM (active) in the test on SR; 0.0693 µM (active) in the test on K562. For the same compound, the values for the GI50 with RPMI-8226 and in the test with NCI-H522 were 0.055 µM (active) and 0.31 µM (active), respectively.

As to `C/C=C/[P+](c1ccccc1)(c1ccccc1)c1ccccc1`, the GI50 in the test on UO-31 is 26.7 µM (inactive); in the test on HCT-15, 25.5 µM; in the test with A549, 0.548 µM (active); in the test on OVCAR-4, 2.77 µM (inactive); in the test on A498, 6.58 µM (inactive); in the test with MDA-MB-231, 2.58 µM (inactive). Further, the GI50 was 7.33 µM (inactive) with 786-0; 0.101 µM (active) in the test on COLO 205; 0.426 µM (active) in the test with OVCAR-8; 1.29 µM (inactive) in the test with SK-MEL-28; 2.26 µM (inactive) with SF-295; 0.337 µM (active) in the test on Hs-578T. In addition, the GI50 is 0.787 µM (active) with TK-10; 0.277 µM (active) in the test with KM12; 0.296 µM (active) in the test with EKVX; 2.11 µM (inactive) in the test on IGROV-1; 0.381 µM (active) in the test on SR; 0.0649 µM (active) in the test with K562. The figures for the GI50 in the test with RPMI-8226 and in the test on NCI-H522 were 0.0413 µM (active) and 0.836 µM (active), respectively.

Turning to `c1ccc2c(C3CCN(CCN4CCOCC4)C3)c[nH]c2c1` (stereo not drawn), the GI50 with UO-31 was > 100 µM (inactive); with HCT-15, > 100 µM; with A549 it was > 100 µM (inactive); in the test on OVCAR-4 it was > 100 µM (inactive); in the test with A498, > 100 µM (inactive); with MDA-MB-231, > 100 µM (inactive). Besides, the GI50 with 786-0, in the test with OVCAR-8, with SK-MEL-28, in the test with SF-295, in the test with Hs-578T and in the test with TK-10 was > 100 µM (inactive) each time. The GI50 in the test with KM12, in the test on EKVX, with IGROV-1, with SR, in the test with K562 and in the test with RPMI-8226 was > 100 µM (inactive) in each case. Moreover, the GI50 with NCI-H522 was > 100 µM (inactive).

Regarding `COC(=O)[C@@]1(Cc2ccc(O)cc2)C[C@@H]2Cc3ccccc3N2N1`, the GI50 was 75.7 µM (inactive) in the test with UO-31; 81.8 µM in the test on HCT-15; 81.7 µM (inactive) in the test on A549; > 100 µM (inactive) with OVCAR-4; 27.9 µM (inactive) in the test on A498; 49.1 µM (inactive) in the test on MDA-MB-231. For the same compound, the GI50 with 786-0 was > 100 µM (inactive); in the test on COLO 205, 79.1 µM (inactive); in the test with OVCAR-8, 71.8 µM (inactive); with SK-MEL-28, > 100 µM (inactive); in the test with SF-295, 49.1 µM (inactive); with Hs-578T it was 68.4 µM (inactive). Further, the GI50 with TK-10 was > 100 µM (inactive); with KM12 it was > 100 µM (inactive); with EKVX, 64.7 µM (inactive); in the test on IGROV-1, 78 µM (inactive); with SR, 31.3 µM (inactive); in the test on RPMI-8226, 30.5 µM (inactive). In addition, in the test on NCI-H522, the GI50 is 58.2 µM (inactive).

For the compound `O=C(Cn1c2ccc(Br)cc2c2nc3ccccc3nc21)NNC(=O)NC1CCCCC1`, the GI50 is 2.52 µM (inactive) in the test on UO-31; 18.3 µM (inactive) with A549; 13.8 µM (inactive) with OVCAR-4; > 100 µM (inactive) in the test on A498; 30.1 µM (inactive) in the test with MDA-MB-231; 44.3 µM (inactive) in the test on 786-0. Moreover, the GI50 is 86.9 µM (inactive) with COLO 205; 35.9 µM (inactive) with OVCAR-8; 45.2 µM (inactive) in the test with SK-MEL-28; 34.3 µM (inactive) with SF-295; 24.4 µM (inactive) in the test with Hs-578T; 42.8 µM (inactive) in the test on TK-10. Moreover, the GI50 in the test on KM12 is 37.4 µM (inactive); in the test on EKVX, 65.8 µM (inactive); in the test with SR, 31 µM (inactive); with K562, 47.1 µM (inactive); in the test with RPMI-8226, > 100 µM (inactive); in the test on NCI-H522 it was 72.8 µM (inactive).

Consider `C[C@]12CC[C@@H]3c4ccc(OCC(=O)O)cc4CC[C@H]3[C@@H]1CCC2=O`, for which the GI50 in the test on UO-31 is > 100 µM (inactive); with HCT-15, > 100 µM; with A549, > 100 µM (inactive); in the test on OVCAR-4, > 100 µM (inactive); in the test on A498, > 100 µM (inactive); in the test with MDA-MB-231, > 100 µM (inactive). The GI50 with 786-0, in the test with COLO 205, in the test on OVCAR-8, with SK-MEL-28, in the test on SF-295 and with Hs-578T was > 100 µM (inactive) in each case. The GI50 in the test on TK-10, in the test on KM12, in the test with EKVX, in the test with IGROV-1, in the test with SR and in the test on RPMI-8226 was > 100 µM (inactive) each time. In the test with NCI-H522, the GI50 was > 100 µM (inactive).

For the compound `O=[N+]([O-])c1cc(F)ccc1S(=O)(=O)c1ccccc1`, the GI50 in the test with HCT-15 is > 10 µM; in the test on A549, > 10 µM (inactive); in the test on OVCAR-4 it was > 10 µM (inactive); with A498 it was > 10 µM (inactive); in the test on MDA-MB-231, > 10 µM (inactive); with 786-0 it was > 10 µM (inactive). Further, the GI50 in the test on COLO 205, with OVCAR-8, in the test on SK-MEL-28, with SF-295, with Hs-578T and with TK-10 was > 10 µM (inactive) in each case. Besides, the GI50 was > 10 µM (inactive) in the test on KM12; 5.14 µM (inactive) with EKVX; > 10 µM (inactive) in the test on IGROV-1; > 10 µM (inactive) in the test with SR; > 10 µM (inactive) in the test on K562; > 10 µM (inactive) with RPMI-8226. Besides, the GI50 with NCI-H522 is 2.22 µM (inactive).

With `Cc1c(-c2ccccc2)[nH]n(C2=NCCN2)c1=O`, the GI50 in the test with UO-31 was 85.1 µM (inactive); with HCT-15 it was > 100 µM; in the test on A549, > 100 µM (inactive); in the test with OVCAR-4 it was > 100 µM (inactive); in the test on A498 it was > 100 µM (inactive); in the test with MDA-MB-231, > 100 µM (inactive). For the same compound, the GI50 in the test with 786-0, in the test with COLO 205, with OVCAR-8, in the test with SF-295, in the test with Hs-578T and with TK-10 was > 100 µM (inactive) each time. The GI50 in the test with KM12 is > 100 µM (inactive); with EKVX it was > 100 µM (inactive); with IGROV-1 it was 67.8 µM (inactive); in the test on SR it was > 100 µM (inactive); in the test with K562, > 100 µM (inactive); in the test on RPMI-8226, > 100 µM (inactive). The GI50 in the test on NCI-H522 is > 100 µM (inactive).
